The subject of one data set is TGFβ induced 4T1 cells. Briefly: Binding of Cy5 probes to TGFβ induced 4T1 cells in vitro. The data set is classed as cell-based. The method, then:
As tumor cells produce EDB-FN to promote its migration, we further validated if Cy5 labeled l-ZD2 (l-ZD2-Cy5) can bind to TGFβ induced 4T1 cells in vitro. […] To explain this, we hypothesize that in this form of cell culture, no clot formation can take action to provide binding sites for CREKA-Cy5. To validate our hypothesis, we further produced a 3D culture system that mimics the “soil” of metastatic tumor. In the 3D culture system, 4T1 cells were cultured in a microenvironment containing TGFβ, collagen, and fibrin. […] In overall, these evidences point to the conclusion that the use of EDB-FN for targeting micrometastasis may be advantageous compared with Fibronectin-Fibrin complexes in that EDB-FN appears earlier than Fibronectin-Fibrin in the pre-metastatic niche.

The subject of the next data set is 4T1 metastatic tumors. Briefly: Fluorescence detection of micrometastasis, breast cancer metastatic tumor model. The data set is classed as in vivo, mouse. The settings on record: three hours after 10 nmol injection. How it is done: In order to construct a metastatic tumor model, 0.2×10^6 4T1 tumor cells undergone 5 days of TGFβ induction were injected through left ventricle of heart, resulting in the spread of tumor cells primarily in brain, lung, liver, lymph node, adrenal gland, chest, and bone marrow. Bioluminescent images of the mice at two weeks were used to monitor the growth of tumors. To assess the targeting capacity of l-ZD2-Cy5, brain and lung were harvested from the mice three hours after 10 nmol l-ZD2-Cy5 were injected. […] Normal brain and lung harvested from normal mice injected with l-ZD2-Cy5 were used as negative controls. Examination of bigger metastatic tumors in lymph nodes and adrenal gland, as shown in FIG. 8B further backed up the targeting efficiency of l-ZD2-Cy5.

The target of the next data set is EDB fragment (Homo sapiens, UniProt P02751). Briefly: Peptide ELISA of HRP-conjugated peptides on coated EDB. The data set is classed as binding. The conditions noted are these: HRP conjugates. How it is done:
A linear version of ZD2 (CTVRTSADA) SEQ ID NO: 42 was synthesized so that sulfhydryl group on cysteine could be used for conjugation with maleimide-activated […] (Sigma-Aldrich). Conjugation was carried out as instructed in the manual. The product of conjugation, ZD2-HRP, was used for peptide ELISA assay after coating a 96-well plate with purified EDB. 0.5% BSA in PBS was used to block non-specific binding for later steps. 0.39 μM to 50 μM of ZD2-HRP was incubated with coated EDB for an hour followed by extensive washing with TBST (0.1%). ABTS substrate was added subsequently and allowed to react for 30 min before the absorbance of solution in each well were measured at 415 nm. Non-coated wells added with ABTS were used as blank.
Cyclic ZD2 peptide (CTVRTSADC) (SEQ ID NO: 10) was synthesized using standard solid phase peptide chemistry and was characterized by MALDI-TOF mass spectrometry (FIG. 1C). The peptide was then labeled with a fluorescence chromophore cyanine 5 (Cy5) through a short PEG linker (NH2—(CH2CH2O)—CH2CH2COOH) to give a peptide fluorescence probe ZD2-Cy5. The peptide was also conjugated to peroxidase (ZD2-HRP) and the binding affinity of the peptide to EDB fragment was determined using peptide ELISA assay.
(§1) Similarly, CERAK-HRP is synthesized as a control.
(In an ELISA, binding on a coated surface is turned into a signal by an enzyme label.)

In another data set the target is EDA (Homo sapiens, UniProt P02751). Briefly: ELISA of l-ZD2-HRP on EDA. The data set is classed as binding.
EDA, sequence (P02751 1727-1814 limits assumed): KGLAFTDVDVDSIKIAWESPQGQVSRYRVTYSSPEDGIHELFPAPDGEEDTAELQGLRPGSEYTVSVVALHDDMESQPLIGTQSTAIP
Excerpt: as §1

In data set [1] the test system is PC-3 human prostate cancer xenograft. Briefly: MRI of PC-3 xenograft (Example 2). In kind it is in vivo, mouse. The settings on record: 0.1 mmol-Gd/kg intravenous. The source says: The same contrast agent also works for prostate cancer imaging. We then tested the effectiveness of targeting EDB-FN with the contrast agent for prostate cancer MRI in male nude mice bearing primary PC-3 human prostate cancer xenograft.

In data set [2] the test system is PC3 prostate tumor xenografts. Briefly: T1-weighted MRI at 1 Tesla, PC3 tumors (Example 3). In kind it is in vivo, mouse. The conditions noted are these: 0.1 mmol/kg i.v., up to 30 min, 1 Tesla. How it is done:
(§2) Male athymic nude mice were purchased from Case Comprehensive Cancer Center (Cleveland, Ohio, USA) and housed in the Animal Core Facility at Case Western Reserve University. All animal experiments were performed in accordance with the animal protocol approved by the CWRU Institutional Animal Care and Use Committee. Athymic nude male mice were subcutaneously injected with 100 μL cell suspension (4×10^7 cells/mL) in matrigel matrix (Corning Bioscience, Corning, N.Y.) to initiate tumors. Mice with tumors of 5-8 mm in diameter were used for imaging studies.
(§3) MR images of tumor bearing mice were acquired on an Aspect M3 small animal MRI scanner (1 Tesla). Mice were placed on a holder with the temperature maintained at 37° C., with isoflurane/oxygen mixture supplied to the mice through a nose cone. A thin catheter filled with PBS was connected to a tail vein of the mice. After mice were placed in the coil, a pilot scan was performed to adjust mice to the proper location in the coil. An axial T1 weighted sequence (TR=500 ms; TE=9 ms; Flip angle=90°; Field of view=3 cm×3 cm; Matrix size=128×128×8; slice thickness=2 mm; interslice distance=1 mm) was then used to acquire the images of the tumors before and 10 min, 20 min and 30 min after contrast injection. Images were exported into DICOM data, which were then processed and analyzed using Matlab (Natick, Mass., USA). The contrast to-noise ratio of tumors in the images were calculated as the difference between tumor mean intensity minus muscle mean intensity, divided by the noise.

The test system of data set [3] is LNCaP prostate tumor xenografts. Briefly: T1-weighted MRI at 1 Tesla, LNCaP tumors (Example 3). The data set is classed as in vivo, mouse. The conditions noted are these: 0.1 mmol/kg i.v., up to 30 min. How it is done: as §2
as §3, with “An axial T1 weighted sequence (TR=500 ms; TE=9 ms; Flip angle=90°; Field of view=3 cm×3 cm; Matrix size=128×128×8; slice thickness=2 mm; interslice distance=1 mm) was then used to acquire the images of the tumors before and 10 min, 20 min and 30 min after contrast injection.” left out

A short description of data set [4]: r1 relaxivity by T1 mapping in PC3 tumor lysates. The data set is classed as physicochemical.
The subject of data set [5] is PC3 prostate tumor xenografts. Briefly: In vivo T1-weighted MRI at 7T, PC3 tumors. More on the design: species or system mouse. How it is done: (§4) All MRI experiments were performed on a horizontal 7T Bruker scanner (Bruker Biospin Co., Billerica, Mass.). Imaging experiments were performed when the tumor size reached 5-8 mm in diameter. ZD2-Gd(HP-DO3A) was administered intravenously at the dose of 0.1 mmol/kg after acquiring pre-contrast images. Post-contrast images were obtained at 10 min interval up to 30 min. The axial slices of mouse at the tumor location were acquired using T1-weighted spin echo sequence with the following parameters: field of view (FOV): 3 cm; slice thickness: 1.2 mm; interslice distance: 1.2 mm; TR: 500 ms, TE: 8.1 ms; flip angle: 90°; average: 2; matrix size: 128×128. Contrast-to-noise ratio (CNR) at each time point was calculated by subtraction of the average signal intensity in the tumor and muscle, divided by the standard deviation of image noise. ProHance® (gadoteridol) was used as a control in the imaging experiments.

For data set [6], the system named is LNCaP prostate tumor xenografts. Briefly: In vivo T1-weighted MRI at 7T, LNCaP tumors. Also noted: species or system mouse. The method, then: as §4
The nature of data set [7]: Relaxivity at 1.5T in water, 37° C. In kind it is physicochemical. The settings on record: listed as Gd(HP-DO3A). How it is done: Relaxivity is an important parameter for an MR contrast agent. It reflects how the relaxation rate of the surrounding water proton changes as a function of concentration, and it is directly associated with the agent's contrast enhancing capability during imaging. The relaxivity of the 4 contrast agents was tested at 37° C. in water and compared to Gd(HP-DO3A), Gd-DOTA and ZD2-Gd(HP-DO3A) (FIG. 26). […] Compared to Gd(HP-DO3A), Gd-DOTA, the size increase of the targeted contrast agents due to the peptides and PEG spacer could result in an increase of τR,^[42, 43] thus leading to higher relaxivities.

In a further data set the test system is PC3 tumors. Briefly: In vivo MRI at 1.0 Tesla, PC3 tumor-bearing mice (Example 5). Also noted: species or system mouse. How it is done:
All MRI experiments were performed on an Aspect M3 compact MRI scanner (1.0 Telsa, Aspect Imaging. Israel). Imaging experiments were performed when the tumor size reached 5-8 mm in diameter. Each contrast agent was administered intravenously at a dose of 0.1 mmol/kg Gd^3+ after acquiring pre-contrast images. ProHance® (gadoteridol) was used as a control in the imaging experiments. Post-contrast images were obtained at 10 min intervals up to 30 min. Axial slices of the mouse at the tumor location were acquired using a T1-weighted spin echo sequence with the following parameters: TR=500 ms, TE=8.144 ms, slice thickness=1 mm, inter-slice gap=0.1 mm, field of view (FOV)=3 cm×3 cm. The total imaging time is 216 seconds. Contrast-to-noise ratio (CNR) at each time point was calculated by measuring the ratios of signal intensities in manually drawn regions of interest (ROIs) in tumor and muscle, and then normalizing to image noise. A 3D FLASH gradient echo sequence was used for whole-body coronal imaging. Imaging parameters were TR=17.362 ms, TE=6 ms, flip angle=15°, slice thickness=1.5 mm, FOV=[…]. The total imaging time is 226 seconds. Each of the 16 slices was acquired immediately after the acquisitions with the T1-weighted spin echo sequence.

The mark [8] stands for this setting: 0.1 mmol/kg i.v., up to 30 min, 7T.

Where no end group is shown, it is not given here.

EDB fragment, sequence (P02751 1271-1359 limits assumed): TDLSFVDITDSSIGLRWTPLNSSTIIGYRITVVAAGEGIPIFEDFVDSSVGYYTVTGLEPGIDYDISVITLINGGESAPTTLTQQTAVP

As for “l-ZD2-Cy5: Cy5 labeled l-ZD2 (TVRTSAD; also: Cy5 labeled, site not given here)”, the “binding to induced 4T1 cells” value in the data set on TGFβ induced 4T1 cells (cell culture) is given as “bound to induced 4T1 cells within 3 hours”. The “binding in 3D culture of 4T1 cells” value in the data set with TGFβ induced 4T1 cells (microenvironment containing TGFβ, collagen, and fibrin) is listed as “accumulated in the cell periphery starting from day 1”. For the same compound, the “binding to micrometastases on brain and lung” value in the data set with 4T1 metastatic tumors is “clearly outlined the micrometastases”.

In the case of “l-ZD2-HRP: NH2-TVRTSADC-COOH conjugated via cysteine thiol to maleimide activated horseradish peroxidase”, in the data set with EDB fragment, the “binding to EDB protein” value is recorded as “comparable to cyclic ZD2 with a slight increase in affinity”. In the data set with EDA, the “binding to EDA” value is reported as “No binding”.

Turning to `CC(O)CN1CCN(CC(=O)[O-])CCN(CC(=O)[O-])CCN(CC(=O)[O-])CC1.[Gd+3]` (centres unmarked) [ProHance, gadoteridol, reference compound], the tumor contrast enhancement entry in data set [1] is listed as “little contrast enhancement”. In addition, the “signal enhancement in PC3 tumors” value in data set [2] and in [5] (setting [8]) was “modest contrast enhancement” throughout. Besides, the “signal enhancement in LNCaP tumors” value in [3] and in [6] (setting [8]) was “modest contrast enhancement” each time. The compound further displayed a r1 relaxivity in [4] of 3.17 mM⁻¹ s⁻¹. For the same compound, the “CNR in PC3 tumors” value in data set [5] (10-30 min post-injection) was 7˜11. Also, the “CNR in LNCaP tumors” value in [6] (10-30 min post-injection) was 7˜10. In addition, the r1 in data set [7] is 2.9 mM⁻¹ s⁻¹. Further, the “tumor signal enhancement, T1-weighted spin-echo” value with PC3 tumors (0.1 mmol/kg i.v., at 10 minutes, remained at least 30 min) is recorded as “modest contrast enhancement”. For the same compound, the “time of peak CNR in PC3 tumors” value with PC3 tumors (Gd-DOTA conjugates and ProHance, 0.1 mmol/kg) is recorded as 10 min. In addition, in the data set with PC3 tumors (especially at 20 and 30 min), the “CNR in PC3 tumors compared to the peptide targeted contrast agents” value was “lower CNR”.

Values taken from patent publication US11738099B2, “Molecular probes and methods of use” (CASE WESTERN RESERVE UNIVERSITY, priority 2014, dated 2023).
